Source: patent US20090227533A1, “miR-34 Regulated Genes and Pathways as Targets for Therapeutic Intervention” (priority 2007, published 2009)

Tests used:
[1] = tested on: A549 cells; test: Alamar Blue proliferation assay, lung cancer cells; assay type: cell-based, human; details: hsa-miR-34a 30 nM, lipid transfection, 72 hours, normalized to NC (100%)
Description: (§1) The inventors assessed the therapeutic effect of hsa-miR-34a for lung cancer by using eight individual lung cancer cell lines. To measure cellular proliferation of lung cancer cells, the following non-small cell lung cancer (NSCLC) cells were used: cells derived from lung adenocarcinoma (A549, H522, Calu-3, HCC2935), cells derived from lung squamous cell carcinoma (H226), cell derived from lung adenosquamous cell carcinoma (H596), cells derived from lung bronchioalveolar carcinoma (H1650), and cells derived from lung large cell carcinoma (H460). Synthetic hsa-miR-34a (Pre-miR™-hsa-miR-34a, Ambion cat. no. AM17100) or negative control (NC) miRNA (Pre-miR™ microRNA Precursor Molecule-Negative Control #2; Ambion cat. no. AM17111) was delivered via lipid-based transfection into A549, H522, H596, Calu-3, HCC2935, H1650, H460 cells and via electroporation into H226 cells.
(§2) Lipid-based reverse transfections were carried out in triplicate according to a published protocol (Ovcharenko et al., 2005) and the following parameters: cells (5,000-12,000 per 96 well), 0.1-0.2 μl Lipofectamine™ 2000 (cat. no. 11668-019, Invitrogen Corp., Carlsbad, Calif., USA) in 20 μl OptiMEM (Invitrogen), 30 nM final concentration of miRNA in 100 μl. Electroporation of H226 cells was carried out using the BioRad Gene Pulser Xcell™ instrument (BioRad Laboratories Inc., Hercules, Calif., USA) with the following settings: 5×10^6 cells with 5 μg miRNA in 200 μl OptiMEM (1.6 μM miRNA), square wave pulse at 250 V for 5 ms. Electroporated H226 cells were seeded at 7,000 cells per 96-well in a total volume of 100 μl. All cells except for Calu-3 cells were harvested 72 hours post transfection or electroporation for assessment of cellular proliferation. Calu-3 cells were harvested 10 days post transfection. Proliferation assays were performed using Alamar Blue (Invitrogen) following the manufacturer's instructions. As a control for inhibition of cellular proliferation, siRNA against the motor protein kinesin 11, also known as Eg5, was used. Eg5 is essential for cellular survival of most eukaryotic cells and a lack thereof leads to reduced cell proliferation and cell death (Weil et al., 2002). siEg5 was used in lipid-based transfection following the same experimental parameters that apply to miRNA. The inventors also used a DNA topoisomerase II inhibitor, etoposide, at a final concentration of 10 μM and 50 μM as an internal standard for the potency of miRNAs. Etoposide is an FDA-approved DNA topoisomerase II inhibitor in the treatment of lung cancer. […] Percent (%) proliferation values from the Alamar Blue assay were normalized to values from cells treated with negative control miRNA. Percent proliferation of hsa-miR-34a treated cells relative to cells treated with negative control miRNA (100%) is shown in Table 7 and in FIG. 1.

[2] = tested on: H522 cells; test: Alamar Blue proliferation assay, lung cancer cells; assay type: cell-based, human; details: hsa-miR-34a 30 nM, lipid transfection, 72 hours, normalized to NC (100%)
Description: as §1, §2

[3] = tested on: H596 cells; test: Alamar Blue proliferation assay, lung cancer cells; assay type: cell-based, human; details: hsa-miR-34a 30 nM, lipid transfection, 72 hours, normalized to NC (100%)
Description: as §1, §2

[4] = tested on: H460 cells; test: Alamar Blue proliferation assay, lung cancer cells; assay type: cell-based, human; details: hsa-miR-34a 30 nM, lipid transfection, 72 hours, normalized to NC (100%)
Description: as §1, §2

[5] = tested on: H1650 cells; test: Alamar Blue proliferation assay, lung cancer cells; assay type: cell-based, human; details: hsa-miR-34a 30 nM, lipid transfection, 72 hours, normalized to NC (100%)
Description: as §1, §2

[6] = tested on: Calu-3 cells; test: Alamar Blue proliferation assay, lung cancer cells; assay type: cell-based, human; details: 10 days post transfection
Description: as §1, §2

[7] = tested on: HCC2935 cells; test: Alamar Blue proliferation assay, lung cancer cells; assay type: cell-based, human; details: hsa-miR-34a 30 nM, lipid transfection, 72 hours, normalized to NC (100%)
Description: as §1, §2

[8] = tested on: H460 non-small cell lung cancer xenografts; test: Tumor growth of human lung cancer xenografts, intratumoral injection; assay type: in vivo, NOD/SCID mice
Description: The inventors assessed the growth-inhibitory activity of hsa-miR-34a in human lung cancer xenografts grown in immunodeficient mice. Each 3×10^6 human H460 non-small cell lung cancer cells were mixed with BD Matrigel™, (BD Biosciences; San Jose, Calif., USA; cat. no. 356237) in a 1:1 ratio and subcutaneously injected into the lower back of 23 NOD/SCID mice (Charles River Laboratories, Inc.; Wilmington, Mass., USA). Once animals developed palpable tumors (day 11 post xenograft implantation), a group of six animals received intratumoral injections of each 6.25 μg hsa-miR-34a (Dharmacon, Lafayette, Colo.) formulated with the lipid-based siPORT™ amine delivery agent (Ambion, Austin, Tex.; cat. no. AM4502) on days 11, 14, and 17. A control group of six animals received intratumoral injections of each 6.25 μg negative control miRNA (NC; Dharmacon, Lafayette, Colo.), following the same injection schedule that was used for hsa-miR-34a. Given an average mouse weight of 20 g, this dose equals 0.3125 mg/kg. […] Caliper measurements were taken every 1-2 days, and tumor volumes were calculated using the formula, Volume=length×width×width/2, in which the length is greater than the width. Average tumor volumes, standard deviations and p-values were calculated and plotted over time (FIG. 4).

With “hsa-miR-34a: synthetic miRNA; mature sequence UGGCAGUGUCUUAGCUGGUUGUU (MIMAT0000255; SEQ ID NO:1) (synthetic miRNA, chemistry not given here)” the “% proliferation” value [1] was 75.95%, the “% proliferation” value [2] was 94.41% and the “% proliferation” value [3] was 73.19%. For the same substance, the “% proliferation” value [4] was 77.46%, the “% proliferation” value [5] was 78.37% and the “% proliferation” value ([6]; Calu-3, hsa-miR-34a 30 nM, lipid transfection, normalized to NC (100%)) was 28.51%. For the same substance, the reduction of proliferation ([6]; Calu-3 cells, 30 nM, relative to negative control miRNA) was 71.49%, the “% proliferation” value [7] was 80.19% and the average tumor volume ([8]; day 19, 6.25 μg intratumoral in siPORT amine on days 11, 14, 17, n=6) was 196 mm^3. For the same substance, the “growth of established H460 lung tumors” value ([8]; three intratumoral doses) was “robustly inhibited growth”.
